According to EP4603105A1, “PHARMACEUTICAL COMPOSITION CONTAINING CYCLIC COMPOUND HAVING SELECTIVE KRAS INHIBITORY EFFECT AGAINST HRAS AND NRAS” (CHUGAI SEIYAKU KABUSHIKI KAISHA, priority 2022, dated 2024):
pIC50: −log10 of the molar value. Where a SMILES comes first, the peptide text is derived from it. Bridges are numbered along the chain shown (N, C = ends). [ ]: non-standard residue; d: D form. The star is where a group is joined. hPhe(3-Cl-4-CF3) = N[C@@H](CCc1ccc(C(F)(F)F)c(Cl)c1)C(=O)O; NPrPhe(4-CF3) = CCCN[C@@H](Cc1ccc(C(F)(F)F)cc1)C(=O)O; NMePhe(4-Me) = CN[C@@H](Cc1ccc(C)cc1)C(=O)O; NMeGly(cPent) = CN[C@H](C(=O)O)C1CCCC1; NMeD = CN[C@@H](CC(=O)O)C(=O)O; NMeL = CN[C@@H](CC(C)C)C(=O)O; Morpholide = C1CN(*)CCO1; NMeA = CN[C@@H](C)C(=O)O; Ac5c = NC1(C(=O)O)CCCC1; Aze = O=C(O)[C@@H]1CCN1; Sar = CNCC(=O)O

Assays:
[1] = tested on: human lung cancer strain NCI-H441; assay type: cell-based
In short: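 Proliferation was scored by […] measured after the reagent was added to cultures kept at 37°C in 5% carbon dioxide.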

[2] = target: GDP-bound NRAS wild-type protein (Homo sapiens, UniProt P01111); test: Binding to NRAS by surface plasmon resonance (SPR), KD and KD ratio to KRAS
In short: (§1)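 SPR, 30°C: Avi-biotin RAS·GDP captured via Biotin CAPture (~100–300 RU); running buffer HBS pH 7.4, 1 mM DTT, 10 mM MgCl2, 0.01% Tween 20, 10 µM GDP, 4% DMSO. Single-cycle kinetics, 100 µL/min, 75 s injections; 1:1 model → KD.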

HRAS wild-type protein = HRAS wild-type protein (Homo sapiens, UniProt P01112); test: Binding to HRAS by surface plasmon resonance (SPR), KD and KD ratio to KRAS
In short: as §1

[3] = ratio of KD value for GDP-bound NRAS wild-type protein to KD value for KRAS (SPR)
[4] = ratio of KD value for HRAS wild-type protein to KD value for KRAS (SPR)
[5] = ratio of KD for GDP-bound NRAS wild-type protein to KD for KRAS
[6] = ratio of KD for HRAS wild-type protein to KD for KRAS
[7] = ratio of the KD value with respect to GDP-bound NRAS wild-type protein to the KD value with respect to KRAS
[8] = ratio of the KD value with respect to HRAS wild-type protein to the KD value with respect to KRAS

GDP-bound NRAS wild-type protein, sequence (P01111 whole entry): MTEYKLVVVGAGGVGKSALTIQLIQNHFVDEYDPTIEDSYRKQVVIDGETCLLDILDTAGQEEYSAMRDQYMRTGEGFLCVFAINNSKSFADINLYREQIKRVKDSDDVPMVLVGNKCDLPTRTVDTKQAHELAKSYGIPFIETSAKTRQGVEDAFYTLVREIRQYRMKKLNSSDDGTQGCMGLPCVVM
HRAS wild-type protein, sequence (P01112 whole entry): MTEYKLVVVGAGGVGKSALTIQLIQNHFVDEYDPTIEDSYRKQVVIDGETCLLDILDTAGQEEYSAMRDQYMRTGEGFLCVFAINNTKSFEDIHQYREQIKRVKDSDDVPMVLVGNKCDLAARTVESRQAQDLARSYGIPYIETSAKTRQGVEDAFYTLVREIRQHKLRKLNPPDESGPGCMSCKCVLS

| Compound | pIC50 [1] | NRAS /KRAS [2, 3] | HRAS /KRAS (HRAS wild-type protein; [4]) | NRAS /KRAS [2, 5] | HRAS /KRAS (HRAS wild-type protein; [6]) | NRAS /KRAS [2, 7] | HRAS /KRAS (HRAS wild-type protein; [8]) |
| --- | --- | --- | --- | --- | --- | --- | --- |
| CC[C@H](C)[C@@H]1NC(=O)[C@H](CC2CC2)N(C)C(=O)C[C@@H](C(=O)N(C)C)N(C)C(=O)[C@H](C2CCCC2)N(C)C(=O)C2(CC(C)(C)C2)NC(=O)[C@@H]2CC(F)(F)CN2C(=O)[C@H](CCc2cc(F)c(C(F)(F)F)c(F)c2)NC(=O)CN(C)C(=O)[C@H](Cc2ccc(C(F)(F)F)cc2)N2CC/C=C\C[C@@H](C2=O)N(C)C(=O)CN(C)C1=O [PP1713] | 8.10 | A (a compound having 10 or more and less than 20 is denoted as A) | A (a compound having 10 or more and less than 20 is denoted as A) |  |  |  |  |
| CCCN1C(=O)CN(C)C(=O)CN(C)C(=O)[C@H]([C@@H](C)CC)NC(=O)[C@H](CC(C)C)N(C)C(=O)C[C@@H](C(=O)N(C)C)N(C)C(=O)[C@H](C2CCCC2)N(C)C(=O)C2(CCCC2)NC(=O)[C@@H]2CCCN2C(=O)[C@H](CCc2ccc(C(F)(F)F)c(Cl)c2)NC(=O)CN(C)C(=O)[C@@H]1Cc1ccc(C(F)(F)F)cc1 [PP0169] ([NMeL]I[Sar][Sar][NPrPhe(4-CF3)][Sar][hPhe(3-Cl-4-CF3)]P[Ac5c][NMeGly(cPent)][NMeD]-NMe2; lactam N-11) | 8.64 |  |  | B (a compound having 3 or more and less than 10 is denoted as B) | B (a compound having 3 or more and less than 10 is denoted as B) |  |  |
| CCC[C@H]1C(=O)N[C@@H]([C@@H](C)CC)C(=O)N(C)CC(=O)N(C)[C@H]2C/C=C\CCN(C2=O)[C@@H](Cc2ccc(C(F)(F)F)cc2)C(=O)N(C)CC(=O)N[C@@H](CCc2ccc(C(F)(F)F)c(OC)c2)C(=O)N2C[C@H](OCC)C[C@H]2C(=O)NC2(CC(C)(C)C2)C(=O)N(C)[C@@H](C2CCCC2)C(=O)N(C)[C@H](C(=O)N(C)C)CC(=O)N1C [PP1560] | 8.74 | A (a compound having 10 or more and less than 20 is denoted as A) | B (a compound having 3 or more and less than 10 is denoted as B) |  |  |  |  |
| CCC[C@H]1C(=O)N[C@@H]([C@@H](C)CC)C(=O)N(C)CC(=O)N(C)[C@H]2C/C=C\CCN(C2=O)[C@@H](Cc2ccc(C(F)(F)F)cc2)C(=O)N(C)CC(=O)N[C@@H](CCc2ccc3sc(F)c(C)c3c2)C(=O)N2C[C@H](OCC)C[C@H]2C(=O)NC2(CC(C)(C)C2)C(=O)N(C)[C@@H](C(CC)CC)C(=O)N(C)[C@H](C(=O)N(C)C)CC(=O)N1C [PP2892] | 8.10 |  |  | A (a compound having 10 or more and less than 20 is denoted as A) | A (a compound having 10 or more and less than 20 is denoted as A) |  |  |
| CC[C@H](C)[C@@H]1NC(=O)[C@H](C)N(C)C(=O)C[C@@H](C(=O)N(C)C)N(C)C(=O)[C@H](C2CCCC2)N(C)C(=O)C2(CCC2)NC(=O)[C@@H]2CC(F)(F)CN2C(=O)[C@H](CCc2cc(F)c(C(F)(F)F)c(F)c2)NC(=O)CN(C)C(=O)[C@H](Cc2ccc(C(F)(F)F)cc2)N2CCCC[C@@H](C2=O)N(C)C(=O)CN(C)C1=O [PP0584] | 8.15 |  |  |  |  | C (A compound having a KD ratio of 0.1 or more and less than 3 is denoted as C) | C (A compound having a KD ratio of 0.1 or more and less than 3 is denoted as C) |
| CC[C@H](C)[C@@H]1NC(=O)[C@H](CC(C)C)N(C)C(=O)C[C@@H](C(=O)N2CCOCC2)N(C)C(=O)[C@H](C2CCCC2)N(C)C(=O)C2(CCCC2)NC(=O)[C@@H]2CCCN2C(=O)[C@H](CCc2ccc(C(F)(F)F)c(Cl)c2)NC(=O)CN(C)C(=O)[C@H](Cc2ccc(C)cc2)N(C)C(=O)[C@@H]2CCN2C(=O)[C@H](C)N(C)C1=O [PP0001] ([NMeL]I[NMeA][Aze][NMePhe(4-Me)][Sar][hPhe(3-Cl-4-CF3)]P[Ac5c][NMeGly(cPent)][NMeD]-Morpholide; lactam N-11) | 8.20 |  |  | C (A compound having a KD ratio of 0.1 or more and less than 3 is denoted as C) | C (A compound having a KD ratio of 0.1 or more and less than 3 is denoted as C) |  |  |
| CCC[C@H]1C(=O)N[C@@H]([C@@H](C)CC)C(=O)N2CCC[C@H]2C(=O)N(C)[C@H]2C/C=C\CCN(C2=O)[C@@H](Cc2ccc(C)cc2)C(=O)N(C)CC(=O)N[C@@H](CCc2ccc(C(F)(F)F)c(OC)c2)C(=O)N2C[C@H](OCC)C[C@H]2C(=O)N(C)C2(CCC2)C(=O)N(C)[C@@H](C2CCCC2)C(=O)N(C)[C@H](C(=O)N(C)C)CC(=O)N1C [PP2332] | 8.42 |  |  |  |  | A (a compound having 10 or more and less than 20 is denoted as A) | B (a compound having 3 or more and less than 10 is denoted as B) |
| CCO[C@@H]1C[C@H]2C(=O)NC3(CC(C)(C)C3)C(=O)N(C)[C@@H](C(CC)CC)C(=O)N(C)[C@H](C(=O)N(C)C)CC(=O)N(C)[C@@H](CC(C)C)C(=O)N[C@@H]([C@@H](C)CC)C(=O)N(C)CC(=O)N(C)[C@H]3C/C=C\CCN(C3=O)[C@@H](Cc3ccc(C)cc3)C(=O)N(C)CC(=O)N[C@@H](CCc3ccc(C(F)(F)F)c(OC)c3)C(=O)N2C1 [PP2168] | 7.77 |  |  |  |  | A (a compound having 10 or more and less than 20 is denoted as A) | A (a compound having 10 or more and less than 20 is denoted as A) |
| CCO[C@@H]1C[C@H]2C(=O)NC3(CC(C)(C)C3)C(=O)N(C)[C@@H](C(CC)CC)C(=O)N3CCC[C@@H]3CC(=O)N(C)[C@@H](CC)C(=O)N[C@@H]([C@@H](C)CC)C(=O)N(C)CC(=O)N(C)[C@H]3C/C=C\CCN(C3=O)[C@@H](Cc3ccc(C(F)(F)F)cc3)C(=O)N(C)CC(=O)N[C@@H](CCc3cc(F)c(C(F)(F)F)c(F)c3)C(=O)N2C1 [PP1605] | 7.50 | A (a compound having 10 or more and less than 20 is denoted as A) | A (a compound having 10 or more and less than 20 is denoted as A) |  |  |  |  |
| CC[C@H](C)[C@@H]1NC(=O)[C@H](CC(C)C)N(C)C(=O)C[C@@H](C(=O)N2CCOCC2)N(C)C(=O)[C@H](C2CCCC2)N(C)C(=O)C2(CC(F)(F)C2)NC(=O)[C@@H]2CCCN2C(=O)[C@H](CCc2cc(F)c(C(F)(F)F)c(F)c2)NC(=O)CN(C)C(=O)[C@H](Cc2ccc(C(F)(F)F)cc2)N2CCCC[C@@H](C2=O)N(C)C(=O)CN(C)C1=O [PP0562] | 8.36 |  |  |  |  | B (a compound having 3 or more and less than 10 is denoted as B) | B (a compound having 3 or more and less than 10 is denoted as B) |
| CCCCO[C@H]1CCN2C(=O)[C@H](CCc3cc(F)c(C(F)(F)F)c(F)c3)NC(=O)CN(C)C(=O)[C@H](Cc3ccc(C(F)(F)F)cc3)N3CCCC[C@@H](C3=O)N(C)C(=O)CN(C)C(=O)[C@H]([C@@H](C)CC)NC(=O)[C@H](CC(C)C)N(C)C(=O)C[C@@H](C(=O)N3CCOCC3)N(C)C(=O)[C@H](C3CCCC3)N(C)C(=O)C3(CCC3)NC(=O)[C@H]12 [PP1071] | 7.61 |  |  | B (a compound having 3 or more and less than 10 is denoted as B) | B (a compound having 3 or more and less than 10 is denoted as B) |  |  |
| CCO[C@@H]1C[C@H]2C(=O)NC3(CCC3)C(=O)N(C)[C@@H](C3CCCC3)C(=O)N(C)[C@H](C(=O)N(C)CC)CC(=O)N(C)[C@@H](CC)C(=O)N[C@@H]([C@@H](C)CC)C(=O)N(C)CC(=O)N(C)[C@H]3C/C=C\CCN(C3=O)[C@@H](CC3CCCCC3)C(=O)N(C)CC(=O)N[C@@H](CCc3cc(F)c(C(F)(F)F)c(F)c3)C(=O)N2C1 [PP1552] | 7.80 | A (a compound having 10 or more and less than 20 is denoted as A) | A (a compound having 10 or more and less than 20 is denoted as A) |  |  |  |  |
| CCO[C@@H]1C[C@H]2C(=O)NC3(CC(C)(C)C3)C(=O)N(CC)[C@@H](C3CCCC3)C(=O)N(C)[C@H](C(=O)N(C)C)CC(=O)N(C)[C@@H](CC)C(=O)N[C@@H]([C@@H](C)CC)C(=O)N(C)CC(=O)N(C)[C@H]3C/C=C\CCN(C3=O)[C@@H](Cc3ccc(C(F)(F)F)cc3)C(=O)N(C)CC(=O)N[C@@H](CCc3cc(F)c(C(F)(F)F)c(F)c3)C(=O)N2C1 [PP1913] | 7.36 |  |  |  |  | A (a compound having 10 or more and less than 20 is denoted as A) | A (a compound having 10 or more and less than 20 is denoted as A) |
| CC[C@H](C)[C@@H]1NC(=O)[C@H](CC2CC2)N(C)C(=O)C[C@@H](C(=O)N(C)C)N(C)C(=O)[C@H](C2CCCC2)N(C)C(=O)C2(CCC2)NC(=O)[C@@H]2C[C@H](C)CN2C(=O)[C@H](CCc2cc(F)c(C(F)(F)F)c(F)c2)NC(=O)CN(C)C(=O)[C@H](Cc2ccc(C(F)(F)F)cc2)N2CC/C=C\C[C@@H](C2=O)N(C)C(=O)CN(C)C1=O [PP1499] | 8.26 | A (a compound having 10 or more and less than 20 is denoted as A) | B (a compound having 3 or more and less than 10 is denoted as B) |  |  |  |  |
| CCO[C@@H]1C[C@H]2C(=O)NC3(CCC3)C(=O)N(C)[C@@H](C3CCCC3)C(=O)N(C)[C@H](C(=O)N(C)C)CC(=O)N(C)[C@@H](CC)C(=O)N[C@@H]([C@@H](C)CC)C(=O)N(C)CC(=O)N(C)[C@H]3CCCCN(C3=O)[C@@H](Cc3ccc(C(F)(F)F)cc3)C(=O)N(C)CC(=O)N[C@@H](CCc3ccc(C(F)(F)F)c(OC)c3)C(=O)N2C1 [PP0884] | 8.21 |  |  | C (A compound having a KD ratio of 0.1 or more and less than 3 is denoted as C) | C (A compound having a KD ratio of 0.1 or more and less than 3 is denoted as C) |  |  |
